In patent US20090197856A1, “ANTIVIRAL COMPOUNDS” (Genelabs Technologies, Inc., priority 2007, published 2009):
Read-outs that look alike come from different tables or passages of the source.

Target: T1, HCV-NS5b (Hepatitis C virus genotype 1b, UniProt Q9WMX2)
T1 construct: (His)6 (C); made in house; host or cells: XL-1 cells (E. coli), IPTG-inducible plasmid
Experiment: HCV-NS5b enzyme assay using homopolymer substrate
Assay type: biochemical
From the text: The coding sequence of NS5b protein was cloned by PCR from pFKI389luc/NS3-3′/ET as described by Lohmann, V., et al. (1999) Science 285, 110-113 using the primers shown on page 266 of WO 2005/012288
The cloned fragment is missing the C terminus 21 amino acid residues. The cloned fragment was inserted into an IPTG-inducible (isopropyl-β-D-thiogalactopyranoside) expression plasmid that provides an epitope tag (His)6 at the carboxy terminus of the protein.
The recombinant enzyme was expressed in XL-1 cells and after induction of expression, the protein was purified using affinity chromatography on a nickel-NTA (nitrilotriacetic acid) column. Storage condition was 10 mM Tris-HCl pH 7.5, 50 mM NaCl, 0.1 mM EDTA (ethylenediaminetetraacetic acid), 1 mM DTT (dithiothreotol), 20% glycerol at −20° C.
The polymerase activity was assayed by measuring incorporation of radiolabeled UTP into a RNA product using a biotinylated, homopolymeric template. The template was formed by annealing adenosine homopolymer to uridine 20-mer capped with a 5′-biotin group (biotin-U^20) in the ratio of 1:4. Typically, the assay mixture (50 μL) contained 25 mM Tris-HCl (pH 7.5), 40 mM KCl, 0.3 mM MgCl2, 0.05 mM EDTA, 0.2 unit/μL Superase RNAse Inhibitor, 5 mM DTT, 30 μM UTP (Uridine triphosphate), including [^3H]-UTP (uridine triphosphate) at 0.4 μCi/μL with final concentration of 1 μM, and 50 nM of homopolymeric template. Test compounds were initially dissolved in 100% DMSO and further diluted in aqueous buffer containing 5% DMSO. Typically, compounds were tested at concentrations between 2 nM and 50 μM. Reactions were started with addition of enzyme and allowed to continue at 30° C. for 90 minutes. Reactions were quenched with 8 μL of 100 mM EDTA and reaction mixtures (30 μL) were transferred to streptavidin-coated scintillation proximity microtiter plates (FlashPlates) and incubated at room temperature overnight. Incorporation of radioactivity was determined by scintillation counting.
Inhibitor IC50 values were determined by adding test compound as ten point, two-fold serial dilutions in 100% DMSO with a final reaction concentration of 5%. IC50 was calculated by plotting the % inhibition against compound concentration and fitting the data to a constrained four parameter sigmoidal curve, equivalent to the “four parameter logistic equation”:
Where Bottom is the minimum Y value, Top is the maximum Y value, and Hillslope is the slope of the linear portion of the semi-log curve. Top and Bottom were constrained to values of 0% and 100%, respectively. These analyses were performed using Graphpad Prism v.4.0 (Graphpad Software, Inc.) in conjunction with DS Accord for EXCEL 6.0 (Accelrys, Microsoft Corp.).
The table below lists the IC50 values of compounds determined using the homopolymer substrates.

[1] = homopolymer substrate, [3H]-UTP incorporation, 30° C., 90 minutes, read-out: IC50

| SMILES | IC50 [1] [nM] | IC50 [nM] |
| --- | --- | --- |
| CN1CCC(c2cn3c4c(cccc24)-c2c(C4CCCCC4)c4ccc(C(=O)O)cc4n2CCC3)CC1 [Compound 399] | 220 |  |
| CCN(CC)CC#Cc1cn2c3c(cccc13)-c1c(C3CCCCC3)c3ccc(C(=O)O)cc3n1CCC2 [Compound 432] | 324 |  |
| CCC(C)NCc1cn2c3c(cccc13)-c1c(C3CCCCC3)c3ccc(C(=O)O)cc3n1CCC2 (stereo not drawn) [Compound 379] | 117 |  |
| C[C@@H]1CC[C@@H](C)N1Cc1cn2c3c(cccc13)-c1c(C3CCCCC3)c3ccc(C(=O)O)cc3n1CCC2 [Compound 392] | 105 |  |
| O=C(O)c1ccc2c(C3CCCCC3)c3n(c2c1)CCCn1cc(CN2CCC2)c2cccc-3c21 [Compound 113] | 84 |  |
| NCc1cc2cccc3c2n1CCCn1c-3c(C2CCCCC2)c2ccc(C(=O)O)cc21 [Compound 418] | 144 |  |
| CN(C)C1CCN2CCn3c(c(C4CCCCC4)c4ccc(C(=O)O)cc43)-c3cccc1c32 (stereo not drawn) [Compound 285, 15-Cyclohexyl-4-(dimethylamino)-5,6,8,9-tetrahydro-4H-indolo[1′,2′:4,5][1,4]diazepino[6,7,1-ij]quinoline-12-carboxylic acid] | 79 |  |
| O=C(O)c1ccc2c(C3CCCCC3)c3n(c2c1)CCCn1cc(CN2CCC(O)C2)c2cccc-3c21 (stereo not drawn) [Compound 390] | 237 |  |
| CCN(CC)CCc1cn2c3c(cccc13)-c1c(C3CCCCC3)c3ccc(C(=O)O)cc3n1CCC2 [Compound 452] | 325 |  |
| CCN(C)Cc1c(C(=O)N(C)C)n2c3c(cccc13)-c1c(C3CCCCC3)c3ccc(C(=O)O)cc3n1CCC2 [Compound 410] | 384 |  |
| O=C(O)c1ccc2c(C3CCCCC3)c3n(c2c1)CCn1cc(CCN2CCCCC2)c2cccc-3c21 [Compound 349] | 98 |  |
| C=C1Cn2cc(CN3CCCCC3)c3cccc(c32)-c2c(C3CCCCC3)c3ccc(C(=O)O)cc3n2C1 [Compound 341] | 135 |  |
| COCCNC(=O)c1cn2c3c(cccc13)-c1c(C3CCCCC3)c3ccc(C(=O)O)cc3n1CCC2 [Compound 442] |  | 123 |
| CC1CCN(Cc2cn3c4c(cccc24)-c2c(C4CCCCC4)c4ccc(C(=O)O)cc4n2CCC3)CC1 [Compound 117] | 108 |  |
| O=C(O)c1ccc2c(C3CCCCC3)c3n(c2c1)CCCn1ccc2c(F)ccc-3c21 [Compound 344] | 133 |  |
| CCN(CC)Cc1cn2c3c(nccc13)-c1c(C3CCCCC3)c3ccc(C(=O)O)cc3n1CCC2 [Compound 465] | 1720 |  |
| CN(C)Cc1cn2c3c(cccc13)-c1c(C3CCCCC3)c3ccc(C(=O)O)cc3n1CC2 [Compound 108] | 83 |  |
| CC(C)N1CCC(c2cn3c4c(cccc24)-c2c(C4CCCCC4)c4ccc(C(=O)O)cc4n2CCC3)CC1 [Compound 400] | 250 |  |
| CCC1CN2CCCn3c(c(C4CCCCC4)c4ccc(C(=O)O)cc43)-c3cccc1c32 (stereo not drawn) [Compound 403] | 207 |  |
| O=C(O)c1ccc2c(C3CCCCC3)c3n(c2c1)CC1(CC1)Cn1cc(CN2CCCCC2)c2cccc-3c21 [Compound 427] | 121 |  |
| CC(=O)N1CCN(Cc2cn3c4c(cccc24)-c2c(C4CCCCC4)c4ccc(C(=O)O)cc4n2CCC3)CC1 [Compound 365] | 88 |  |
| COC1CCCN(Cc2cn3c4c(cccc24)-c2c(C4CCCCC4)c4ccc(C(=O)O)cc4n2CCC3)C1 (stereo not drawn) [Compound 124] | 114 |  |
| CN(C)CCc1cn2c3c(cccc13)-c1c(C3CCCCC3)c3ccc(C(=O)O)cc3n1CCC2 [Compound 214] | 278 |  |
| CCN(CC)Cc1cn2c3c(cccc13)-c1c(C3CCCCC3)c3ccc(C(=O)O)cc3n1CC2 [Compound 350] | 65 |  |
| CN1CCN(C(=O)C(=O)c2cn3c4c(cccc24)-c2c(C4CCCCC4)c4ccc(C(=O)O)cc4n2CCC3)CC1 [Compound 123] |  | 155 |
| CN1CCN(Cc2cc3cccc4c3n2CCCn2c-4c(C3CCCCC3)c3ccc(C(=O)O)cc32)CC1 [Compound 415] | 170 |  |

| SMILES | IC50 [1] [nM] | IC50 [nM] |
| --- | --- | --- |
| O=C(O)c1ccc2c(C3CCCCC3)c3n(c2c1)CCCn1ccc2c(Cl)ccc-3c21 [Compound 456] | 125 |  |
| CN(C)Cc1cn2c3c(cccc13)-c1c(C3CCCCC3)c3ccc(C(=O)O)cc3n1CCC2 [Compound 111] | 106 |  |
| CN1CCN(C(=O)c2cn3c4c(cccc24)-c2c(C4CCCCC4)c4ccc(C(=O)O)cc4n2CCC3)CC1 [Compound 439] |  | 182 |
| COc1ccc2c3c1c(CNC(C)C)cn3CCCn1c-2c(C2CCCCC2)c2ccc(C(=O)O)cc21 [Compound 463] | 2060 |  |
| O=C(O)c1ccc2c(C3CCCCC3)c3n(c2c1)CCCn1cc(CN2CCSCC2)c2cccc-3c21 [Compound 128] | 101 |  |
| O=C(O)c1ccc2c(C3CCCCC3)c3n(c2c1)CCCn1c2c(c4cccc-3c41)CN(C1CCCCC1)C2=O [Compound 421] | 472 |  |
| CCN(C)Cc1cn2c3c(ccc(OC)c13)-c1c(C3CCCCC3)c3ccc(C(=O)O)cc3n1CCC2 [Compound 462] | 414 |  |
| COc1ccc2c3c1c(CN1CCCCC1)cn3CCCn1c-2c(C2CCCCC2)c2ccc(C(=O)O)cc21 [Compound 461] | 368 |  |
| O=C(O)c1ccc2c(C3CCCCC3)c3n(c2c1)CCCn1cc(CNCCO)c2cccc-3c21 [Compound 388] | 159 |  |
| O=C(O)c1ccc2c(C3CCCCC3)c3n(c2c1)CCCn1cc(CN2CCCCC2)c2c(F)ccc-3c21 [Compound 345] | 127 |  |
| O=C(O)c1ccc2c(C3CCCCC3)c3n(c2c1)CCCn1cc(Cl)c2cccc-3c21 [Compound 455] | 160 |  |
| CN1CCN(CCc2cn3c4c(cccc24)-c2c(C4CCCCC4)c4ccc(C(=O)O)cc4n2CCC3)CC1 [Compound 449] | 253 |  |
| O=C(O)c1ccc2c(C3CCCCC3)c3n(c2c1)CCCn1cc(CN2CCCC(O)C2)c2cccc-3c21 (stereo not drawn) [Compound 359] | 155 |  |
| CN(C)C(=O)CNCc1cn2c3c(cccc13)-c1c(C3CCCCC3)c3ccc(C(=O)O)cc3n1CCC2 [Compound 369] | 171 |  |
| CON(C)Cc1cn2c3c(cccc13)-c1c(C3CCCCC3)c3ccc(C(=O)O)cc3n1CCC2 [Compound 387] | 180 |  |
| O=C(O)c1ccc2c(C3CCCCC3)c3n(c2c1)CCCn1cc(CN2CCCCC2)c2cccc-3c21 [Compound 119] | 114 |  |
| O=C(O)c1ccc2c(C3CCCCC3)c3n(c2c1)CCCn1cc(CNC2CCOCC2)c2cccc-3c21 [Compound 360] | 149 |  |
| CCCNCc1cn2c3c(cccc13)-c1c(C3CCCCC3)c3ccc(C(=O)O)cc3n1CCC2 [Compound 366] | 121 |  |
| O=C(O)c1ccc2c(C3CCCCC3)c3n(c2c1)CCN1CCC(NC2CCCCC2)c2cccc-3c21 (stereo not drawn) [compound 281] | 61 |  |
| CC(C)NCCCc1cn2c3c(cccc13)-c1c(C3CCCCC3)c3ccc(C(=O)O)cc3n1CCC2 [Compound 433] | 181 |  |
| O=C(O)c1ccc2c(C3CCCCC3)c3n(c2c1)CCCCn1cc(CN2CCCCC2)c2cccc-3c21 [Compound 105] | 131 |  |
| CC1CN(Cc2cn3c4c(cccc24)-c2c(C4CCCCC4)c4ccc(C(=O)O)cc4n2CCC3)CC(C)O1 (stereo not drawn) [Compound 330] | 113 |  |
| CC(C)NCCC(=O)c1cn2c3c(cccc13)-c1c(C3CCCCC3)c3ccc(C(=O)O)cc3n1CCC2 [Compound 430] |  | 73 |
| O=C(O)c1ccc2c(C3CCCCC3)c3n(c2c1)CCCn1cc(CCN2CCCCC2)c2cccc-3c21 [Compound 204] | 118 |  |
| COCCN(CCOC)Cc1cn2c3c(cccc13)-c1c(C3CCCCC3)c3ccc(C(=O)O)cc3n1CCC2 [Compound 362] | 337 |  |
